We go through eight substances from patent US20050019746A1, “Apoptosis-related kinase/GPCRs” (EiRx Therapeutics Limited, priority 2003, published 2005).

What all share (type): cell-based, human
The subject of one data set is U251 cells. In words: 10-14 day Clonagenicity Assay (MTT), U251. The conditions noted are these: for viability/cytotoxicity in the Clonagenicity Assay: U251, 10-14 days post transfection, MTT, FIG. 35; for percentage survival relative to the missense, n = 1 / percentage survival relative to the missense, n = 2 / percentage survival relative to the missense, n = 3: U251, clonagenicity assay, dilution point of maximum toxicity; for percentage survival relative to the missense, n = 1: independent experiment n = 1; for percentage survival relative to the missense, n = 2: independent experiment n = 2; for percentage survival relative to the missense, n = 3: independent experiment n = 3. The text has this:
(§1) The Clonagenicity Assay represents a Cell Viability Screen that allows assessment of a cytotoxic insult at a variety of seed densities of cancer cell lines over an extended period of logarithmic growth, such that the definitive effect of the test substance can be accurately quantified. In this instance, the ‘cytotoxic insult’ to be tested involves the transfection of siRNA Oligomers to knockdown the expression of novel target Kinases and GPCRs as outlined previously. Cell number is quantified 10-14 days post siRNA transfection by MTT conversion as described in detail in Example 6.
(§2) The Clonagenicity Assay is optimised for each cell line examined with respect to seed number. The seed number varies for each cell line and accounts for the differences in cell size, growth rate and sensitivity to transfection-induced toxicity for each cell line pursued. Cells lines given as models for this example include HCT15, MCF7, A549, SKOV3, DU145, U251, PC3, A498 and HeLa. The siRNA oligo to Survivin serves as a positive control for toxicity in this assay and the missense control oligomer acts as a negative control as described in detail in Examples 5 and 6. The c-Raf, BCL2 and PI3K siRNA oligomers serve as additional controls as previously mentioned. The Clonagenicity assay is performed as outlined below.
(§3) Cells are seeded into a 96-well plate as described below and allowed to adhere overnight at 37° C. in a humidified atmosphere containing 5% CO2 in air. Wells are seeded with an appropriate cell number (cell line dependent) in Column 1 of the 96 well plates and this cell suspension is diluted 1 in 2 across the 96 well plates from Column 1 through to 6 (represented on the x-axis in results). Cells are next transfected with siRNA Oligomers, at a concentration of 2 μg/ml, against the genes of interest. Transfections continue for 4 hrs after which the transfection solution is removed and cells are refed with fresh medium and allow to incubate overnight. An additional media change@24 hrs post transfection is made to minimise toxicity of the transfection reagent. Cells are subsequently incubated for a 10-14 Day period post transfection at a 37° C. incubation as described above. Medium is renewed weekly following which MTT quantification is performed as described in Example 5.
Note seed density decreases from 3.5 to 0.1×10^3 cells on the x-axis and the y-axis represents cell number as quantified by MTT conversion, 10-14 days post transfection. This decrease is substantially greater that with the apoptosis gene, Survivin. […] Note seed density decreases from 3.5 to 0.1×10^3 cells on the x-axis and the y-axis represents cell number as quantified by MTT conversion, 10-14 days post transfection.
(§4) To be considered cytotoxic, the siRNA Oligo against the gene target must induce a decreased viability in a cell line across at least 2 seed densities in the clonagenicity assay, such that a significant difference between the target gene and MS is observed i.e. no crossing of the Standard Error bars is detected. The average percentage viability, relative to missense, is recorded for the dilution point at which Maximum Toxicity is induced is recorded in Table 13.
(§5) Table 13 Clonagenicity Assay—This table gives the average percentage survival of the indicated cell lines relative to the missense in a clonagenicity assay, over 3 independent experiments. As an internal reference, the known survival gene ‘Survivin’, BCL2, c-Raf and PI3KR1 was also targeted by siRNA. When no Cytotoxic response is detected ‘-’ is recorded.

In a further data set the test system is HCT15 cells. In words: 10-14 day Clonagenicity Assay (MTT), HCT15. As to conditions: independent experiment n = 1, dilution point of maximum toxicity.
Text: as §1, §2, §3, §4, §5

The next data set relates to A549 cells. In words: 10-14 day Clonagenicity Assay (MTT), A549. As to conditions: for percentage survival relative to the missense, n = 1: independent experiment n = 1, dilution point of maximum toxicity; for percentage survival relative to the missense, n = 3: independent experiment n = 3, dilution point of maximum toxicity.
Text: as §1, §2, §3, §4, §5

The test system of a further data set is SKOV3 cells. In words: 10-14 day Clonagenicity Assay (MTT), SKOV3. The conditions noted are these: for percentage survival relative to the missense, n = 1: independent experiment n = 1, dilution point of maximum toxicity; for percentage survival relative to the missense, n = 3: independent experiment n = 3, dilution point of maximum toxicity.
Text: as §1, §2, §3, §4, §5

For the next data set, the system named is DU145 cells. In words: 10-14 day Clonagenicity Assay (MTT), DU145. As to conditions: for percentage survival relative to the missense, n = 1: independent experiment n = 1, dilution point of maximum toxicity; for percentage survival relative to the missense, n = 2: independent experiment n = 2, dilution point of maximum toxicity; for percentage survival relative to the missense, n = 3: independent experiment n = 3, dilution point of maximum toxicity.
Text: as §1, §2, §3, §4, §5

The next data set concerns A498 cells. In words: 10-14 day Clonagenicity Assay (MTT), A498. As to conditions: for percentage survival relative to the missense, n = 1: independent experiment n = 1, dilution point of maximum toxicity; for percentage survival relative to the missense, n = 3: independent experiment n = 3, dilution point of maximum toxicity.
Text: as §1, §2, §3, §4, §5

For another data set, the system named is PC3 cells. In words: 10-14 day Clonagenicity Assay (MTT), PC3. The conditions noted are these: independent experiment n = 3, dilution point of maximum toxicity.
Text: as §1, §2, §3, §4, §5

The mark [1] stands for this setting: independent experiment n = 2, dilution point of maximum toxicity.

On to “siRNA FLJ13351: sense CACCAAUUAGUUCAAAGCUtt, antisense AGCUUUGAACUAAUUGGUGtt (sense CACCAAUUAGUUCAAAGCUTT; antisense AGCUUUGAACUAAUUGGUGTT; chemistry not given here)”, for which, in the data set with U251 cells, the “viability/cytotoxicity in the Clonagenicity Assay” value was “does not induce cytotoxicity”.
Turning to “siRNA STK6: sense GCCGGUUCAGAAUCAGAAGtt, antisense CUUCUGAUUCUGAACCGGCtt (sense GCCGGUUCAGAAUCAGAAGTT; antisense CUUCUGAUUCUGAACCGGCTT; chemistry not given here)”, the “percentage survival relative to the missense, n = 1” value in the data set on HCT15 cells turned out to be 69.6%; in the data set with A549 cells, 56.8%; in the data set with SKOV3 cells, 10.2%; in the data set on DU145 cells, 48.1%; in the data set with U251 cells it was 12.8%; in the data set on A498 cells, 18.5%. The “percentage survival relative to the missense, n = 2” value stood at 69.6% with A549 cells (setting [1]), 35.3% in the data set on SKOV3 cells (setting [1]), 45.3% in the data set with DU145 cells and 51.5% with U251 cells. In addition, the “percentage survival relative to the missense, n = 3” value with A549 cells worked out at 31.6%; in the data set with SKOV3 cells it was 37.2%; with DU145 cells it was 34.8%; in the data set with U251 cells, 25.8%; with A498 cells, 32.6%. For the same substance, the “viability/cytotoxicity in the Clonagenicity Assay” value with U251 cells is “decreases viability”.
Regarding “siRNA PI3KR1: control siRNA, sense AUGAUCGAUGUGCACGUUUtt, antisense AAACGUGCACAUCGAUCAUtt (sense AUGAUCGAUGUGCACGUUUTT; antisense AAACGUGCACAUCGAUCAUTT; chemistry not given here) [reference compound]”, the “percentage survival relative to the missense, n = 3” value in the data set on A549 cells was 38.3%; in the data set on SKOV3 cells it was 41.7%; in the data set with DU145 cells, 44.8%; in the data set with U251 cells, 21.4%; in the data set on A498 cells it was 10%. For the same substance, the “percentage survival relative to the missense, n = 1” value with SKOV3 cells turned out to be 55.3%; with U251 cells, 56.3%.
With “CNK/PRK SEQ 2 (sense CAGAAAGACUGUGCACUACTT; antisense GUAGUGCACAGUCUUUCUGTT; chemistry not given here)”, the “percentage survival relative to the missense, n = 1” value in the data set on A549 cells came to 62.5%; with SKOV3 cells, 65.7%; in the data set with U251 cells, 35.2%; in the data set with A498 cells it was 20%. In addition, the “percentage survival relative to the missense, n = 3” value is 25.6% with A549 cells; 72.2% with SKOV3 cells; 57.5% with U251 cells; 28.3% in the data set on PC3 cells; 8.2% with A498 cells.
In the case of “PSKH1 SEQ 2 (sense UUGGCCGAGGCAGCUUCAGTT; antisense CUGAAGCUGCCUCGGCCAATT; chemistry not given here)”, the “percentage survival relative to the missense, n = 1” value with A549 cells was 52.3%; with SKOV3 cells, 42.3%; in the data set on U251 cells, 52.1%; with A498 cells, 36%. Further, the “percentage survival relative to the missense, n = 3” value in the data set with A549 cells was determined as 28%; in the data set on SKOV3 cells, 45.1%; with DU145 cells, 35.2%; in the data set with U251 cells, 34.1%; with PC3 cells, 21.8%; with A498 cells it was 6%. Further, in the data set on U251 cells, the “percentage survival relative to the missense, n = 2” value was 50.7%.
For “MPSK1 SEQ 2 (sense GCCGACAUGCAUCGCCUCUTT; antisense AGAGGCGAUGCAUGUCGGCTT; chemistry not given here)”, the figures for the “percentage survival relative to the missense, n = 1” value with A549 cells and in the data set on A498 cells were 39.1% and 39.3%, respectively. For the same substance, the “percentage survival relative to the missense, n = 3” value in the data set with A549 cells is 26.1%; in the data set on SKOV3 cells it was 73.8%; in the data set with DU145 cells it was 63.4%; in the data set with U251 cells it was 59.3%; with PC3 cells it was 16.7%; in the data set on A498 cells, 8.9%.
In the case of “CNK/PRK (sense UCGUAGUGCUUGUACUUACtt; antisense GUAAGUACAAGCACUACGAtt; as printed in the source, key not given here)”, the “percentage survival relative to the missense, n = 1” value with HCT15 cells was found to be 75.9%; in the data set with SKOV3 cells, 13.8%; with DU145 cells, 46.1%; in the data set with U251 cells it was 48.8%; with A498 cells it was 9.5%. In addition, the “percentage survival relative to the missense, n = 3” value in the data set on SKOV3 cells is on record as 50.1%; in the data set with DU145 cells, 16.8%; in the data set with U251 cells, 44.5%; in the data set with A498 cells, 7.2%. Further, in the data set on DU145 cells, the “percentage survival relative to the missense, n = 2” value turned out to be 39%.
On to “MKNK SEQ 2 (sense AUUGCAAGGAGGUUCCAUCTT; antisense GAUGGAACCUCCUUGCAAUTT; chemistry not given here)”, for which the “percentage survival relative to the missense, n = 3” value amounted to 54.8% with A549 cells; 47.6% with SKOV3 cells; 53.6% in the data set with DU145 cells; 52.1% in the data set with U251 cells; 39.5% with PC3 cells; 6% in the data set with A498 cells. The “percentage survival relative to the missense, n = 2” value with U251 cells came to 43.6%. In addition, in the data set with A498 cells, the “percentage survival relative to the missense, n = 1” value was 56.2%.
